PubChem BioAssay (NCI)
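A five-concentration, 48-hour dose response in 96-well plates underlies each endpoint, interpolated linearly between surrounding concentrations. The concentration for 50% growth inhibition is given as GI50. Definition used: TGI = concentration required for complete inhibition of growth.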

Columns and labels:
Assay in all cases: NCI tumour cell line growth inhibition, 48 h
NCI-H226 lung = tested on: NCI-H226 lung
NCI-H23 lung = tested on: NCI-H23 lung
NCI-H460 lung = tested on: NCI-H460 lung
NCI-H522 lung = tested on: NCI-H522 lung
NCI/ADR-RES ovarian = tested on: NCI/ADR-RES ovarian
OVCAR-3 ovarian = tested on: OVCAR-3 ovarian
OVCAR-4 ovarian = tested on: OVCAR-4 ovarian
OVCAR-5 ovarian = tested on: OVCAR-5 ovarian
OVCAR-8 ovarian = tested on: OVCAR-8 ovarian
PC-3 prostate = tested on: PC-3 prostate
RPMI-8226 leukemia = tested on: RPMI-8226 leukemia
RXF 393 renal = tested on: RXF 393 renal
SF-268 CNS = tested on: SF-268 CNS
SF-295 CNS = tested on: SF-295 CNS
SF-539 CNS = tested on: SF-539 CNS
SK-MEL-2 melanoma = tested on: SK-MEL-2 melanoma
SK-MEL-28 melanoma = tested on: SK-MEL-28 melanoma
SK-MEL-5 melanoma = tested on: SK-MEL-5 melanoma
SK-OV-3 ovarian = tested on: SK-OV-3 ovarian
SN12C renal = tested on: SN12C renal
SNB-19 CNS = tested on: SNB-19 CNS
SR leukemia = tested on: SR leukemia
SW-620 colon = tested on: SW-620 colon
T-47D breast = tested on: T-47D breast
TK-10 renal = tested on: TK-10 renal
U251 CNS = tested on: U251 CNS
UACC-257 melanoma = tested on: UACC-257 melanoma
UACC-62 melanoma = tested on: UACC-62 melanoma
UO-31 renal = tested on: UO-31 renal

Work on `CC(=O)Nc1ccc(-n2cnc3cc(-c4ccc(O)cc4)ccc32)cc1C(F)(F)F` yielded a GI50 (NCI-H226 lung) of 13.2 µM, a TGI (NCI-H226 lung) of 58.6 µM and a GI50 (NCI-H23 lung) of 6.2 µM. For the same compound, the TGI (NCI-H23 lung) was 33.1 µM, the GI50 (NCI-H460 lung) was 4.81 µM and the TGI (NCI-H460 lung) was over 100 µM. For the same compound, the GI50 (NCI-H522 lung) was 1.6 µM, the TGI (NCI-H522 lung) was 4.73 µM and the GI50 (NCI/ADR-RES ovarian) was 2.25 µM. It also gave a TGI (NCI/ADR-RES ovarian) of 7.05 µM, a GI50 (OVCAR-3 ovarian) of 15.7 µM and a TGI (OVCAR-3 ovarian) of over 100 µM. The GI50 (OVCAR-4 ovarian) was 24.1 µM, the TGI (OVCAR-4 ovarian) was over 100 µM and the GI50 (OVCAR-5 ovarian) was 12.2 µM. The TGI (OVCAR-5 ovarian) was 34.4 µM, the GI50 (OVCAR-8 ovarian) was 6.6 µM and the TGI (OVCAR-8 ovarian) was 68.1 µM. The GI50 (PC-3 prostate) was 8.15 µM, the TGI (PC-3 prostate) was 39.5 µM and the GI50 (RPMI-8226 leukemia) was 4.73 µM. For the same compound, the TGI (RPMI-8226 leukemia) was 27.6 µM, the GI50 (RXF 393 renal) was 4.31 µM and the TGI (RXF 393 renal) was 18.5 µM. The GI50 (SF-268 CNS) was 7.57 µM, the TGI (SF-268 CNS) was 84.4 µM and the GI50 (SF-295 CNS) was 5.47 µM. It also gave a TGI (SF-295 CNS) of 27.5 µM, a GI50 (SF-539 CNS) of 6.25 µM and a TGI (SF-539 CNS) of 46.7 µM. For the same compound, the GI50 (SK-MEL-2 melanoma) was 2.82 µM, the TGI (SK-MEL-2 melanoma) was 9.73 µM and the GI50 (SK-MEL-28 melanoma) was 6.4 µM. The TGI (SK-MEL-28 melanoma) was 35.3 µM, the GI50 (SK-MEL-5 melanoma) was 5.54 µM and the TGI (SK-MEL-5 melanoma) was 32.9 µM. It also gave a GI50 (SK-OV-3 ovarian) of 17 µM, a TGI (SK-OV-3 ovarian) of 61.1 µM and a GI50 (SN12C renal) of 4.26 µM. The TGI (SN12C renal) was 34.5 µM, the GI50 (SNB-19 CNS) was 14 µM and the TGI (SNB-19 CNS) was over 100 µM. The GI50 (SR leukemia) was 2.58 µM, the TGI (SR leukemia) was 12.5 µM and the GI50 (SW-620 colon) was 6.29 µM. For the same compound, the TGI (SW-620 colon) was over 100 µM, the GI50 (T-47D breast) was 4.73 µM and the TGI (T-47D breast) was 43.5 µM. For the same compound, the GI50 (TK-10 renal) was 14.8 µM, the TGI (TK-10 renal) was 34.3 µM and the GI50 (U251 CNS) was 4.99 µM. The TGI (U251 CNS) was 32.4 µM, the GI50 (UACC-257 melanoma) was 10.6 µM and the TGI (UACC-257 melanoma) was 39.3 µM. The GI50 (UACC-62 melanoma) was 3.82 µM, the TGI (UACC-62 melanoma) was 20.6 µM and the GI50 (UO-31 renal) was 4.84 µM. For the same compound, the TGI (UO-31 renal) was 21.1 µM.
